As a reminder, the IC50 is the concentration at which inhibition is half-maximal. Low readings indicate greater potency, high ones weaker potency. As usually defined, the EC50 is the midpoint of the concentration-response curve.

The text below walks through data of patent publication US8288381B2, “N-9 substituted purine compounds, compositions and methods of use” (Genentech, Inc., priority 2009, dated 2012).

In assay [1] the test system is PC3 cells. Briefly: In vitro cell proliferation assay. The assay is classed as cell-based. The settings on record: Homo sapiens, PC-3; with PC3 cells. Here is the method: Efficacy of Formula I compounds were measured by a cell proliferation assay employing the following protocol:
1. An aliquot of 20 μl of cell culture containing about 10^3 cells (PC3 or MDAMB361.1) in medium was deposited in each well of a 384-well, opaque-walled plate.
2. Control wells were prepared containing medium and without cells; Cells were allowed to settle overnight.
3. The compound was added to the experimental wells and incubated for 3 days.
4. The plates were equilibrated to room temperature for approximately 30 minutes.
5. A volume of CellTiter-Glo Reagent equal to the volume of cell culture medium present in each well was added.
6. The contents were mixed for 2 minutes on an orbital shaker to induce cell lysis.
7. The plate was incubated at room temperature for 20 minutes to stabilize the luminescence signal.
8. Luminescence was recorded and reported in graphs as RLU=relative luminescence units.
Alternatively, cells were seeded at optimal density in a 96 well plate and incubated for 4 days in the presence of test compound. Alamar Blue™ was subsequently added to the assay medium, and cells were incubated for 6 h before reading at 544 nm excitation, 590 nm emission. IC50 values were calculated using a sigmoidal dose response curve fit.

Assay [2] relates to AKT serine-473 phosphorylation in PC-3 cells. Briefly: In vitro phospho-AKT serine 473 cellular assay. The following applies: Homo sapiens, 0.5 h; PC-3 cells stimulated with EGF, 30 minutes compound incubation; read-out: EC50 activity level (50% decrease of S473 AKT phosphorylation). The assay is classed as cell-based. The procedure: The assay measures a test compound's inhibition of AKT serine-473 phosphorylation in human prostate adenocarcinoma derived PC-3 (ATCC CRL-1435) cells that have been stimulated with epidermal growth factor (EGF).
The PC-3 cell line is maintained in RPMI1640 media supplemented with 10% FBS, 2 mM Glutamine, and 10 mM HEPES pH 7.4 at 37° C. in a 5% CO2 humidified incubator.
Cells are seeded in 384-well plates at 7,000 cells/well in 50 μl growth media. After 24 hours, growth media is removed and replaced with RPMI1640 containing no FBS. Cells are treated with 10 concentrations of test compounds or DMSO alone for controls (final DMSO concentration 0.5%) and incubated at 37° C. for 30 minutes. Cells are then stimulated for 10 minutes with 100 ng/ml EGF (final concentration). One column of controls is not stimulated with EGF to observe the signal ratio between stimulated and non-stimulated cells. After 10 minutes, compounds and stimulation media are removed and replaced with 25 μl lysis buffer containing protease inhibitors and phosphatase inhibitors. This buffer contains detergent to bring about cellular disruption. […] Following the transfer of lysate to the MSD plate, AKT in the lysate is captured on the coated antibody by incubation on a shaker at 4° C. for 16 hours. Following the capture step the plate is washed and then incubated for two hours with an antibody to S473 phosphorylated AKT which is conjugated with a Sulfo-Tag. This tag gives a signal when in proximity to the electrode on the base of the MSD plate. Binding the tagged antibody to the captured protein allow detection on a MSD reader.
The EC50 is defined as the concentration at which a given compound achieves 50% decrease of the measured levels of S473 AKT phosphorylation. EC50 values are calculated using MDL Assay Explorer 3.0.1.8 fitting a sigmoidal curve with a variable slope.

Assay [3] has as its target mTOR enzyme (mTOR(1360-2549)+GBL) (Homo sapiens, UniProt P42345). Nature of the assay: In vitro mTOR kinase assay (TR-FRET). The settings on record: Ki apparent, Morrison ATP-competitive tight binding equation; 8 uM ATP, 0.25 nM mTOR+GBL; read-out: activity level (Ki) in the mTOR kinase assay. It counts as biochemical. The procedure:
The kinase activity of mTOR enzyme is assessed by incubating purified recombinant enzyme (mTOR(1360-2549)+GBL, prepared in-house) in a reaction mixture containing ATP, MnCl2, and a fluorescently labeled mTOR substrate, e.g., GFP-4E-BP1 (Invitrogen, product #PR8808A). The reaction is stopped by an addition of a Terbium-labeled phospho-specific antibody, e.g., Tb-labeled anti-p4E-BP1 T37/T46, (Invitrogen, product #PR8835A), EDTA, and TR-FRET buffer solution (Invitrogen, Product #PR3756B). Product formation is detected by way of time-resolved fluorescence resonance energy transfer (TR-FRET), which occurs when the phosphorylated substrate and labeled antibody are in close proximity due to phospho-specific binding. Enzymatic activity is measured as an increase in TR-FRET signal using a Perkin Elmer Envision plate reader. The assay is performed in a 384-well Proxiplate Plus (Perkin Elmer. Product #6008269) using the following protocol:
Compound activity is tested in 10 point dose curves starting at the highest final concentration of 10 uM. They are serially diluted in 100% DMSO prior to further dilution with assay buffer. The reaction mixture (8 uls) containing 0.25 nM mTOR+GBL enzyme, 400 nM GFP-4E-BP1, 8 uM ATP, 50 mM Hepes pH 7.5, 0.01% Tween 20, 10 mM MnCl2, 1 mM EGTA, 1 mM DTT, 1% DMSO (+/−compound) is incubated at room temperature for 30 minutes. 8 μL of solution containing 2 nM Tb-anti-p4E-BP1 antibody & 10 mM EDTA diluted TR-FRET buffer is then added and incubated for 30 minutes to stop the reaction. The plate is scanned with the Envision plate reader. Ki values are calculated in Assay Explorer using the Morrison ATP-competitive tight binding equation for Ki apparent determination.
A general note: In TR-FRET formats the signal depends on donor and acceptor labels being close together.

Chain of mTOR enzyme (mTOR(1360-2549)+GBL) (P42345 1360-2549): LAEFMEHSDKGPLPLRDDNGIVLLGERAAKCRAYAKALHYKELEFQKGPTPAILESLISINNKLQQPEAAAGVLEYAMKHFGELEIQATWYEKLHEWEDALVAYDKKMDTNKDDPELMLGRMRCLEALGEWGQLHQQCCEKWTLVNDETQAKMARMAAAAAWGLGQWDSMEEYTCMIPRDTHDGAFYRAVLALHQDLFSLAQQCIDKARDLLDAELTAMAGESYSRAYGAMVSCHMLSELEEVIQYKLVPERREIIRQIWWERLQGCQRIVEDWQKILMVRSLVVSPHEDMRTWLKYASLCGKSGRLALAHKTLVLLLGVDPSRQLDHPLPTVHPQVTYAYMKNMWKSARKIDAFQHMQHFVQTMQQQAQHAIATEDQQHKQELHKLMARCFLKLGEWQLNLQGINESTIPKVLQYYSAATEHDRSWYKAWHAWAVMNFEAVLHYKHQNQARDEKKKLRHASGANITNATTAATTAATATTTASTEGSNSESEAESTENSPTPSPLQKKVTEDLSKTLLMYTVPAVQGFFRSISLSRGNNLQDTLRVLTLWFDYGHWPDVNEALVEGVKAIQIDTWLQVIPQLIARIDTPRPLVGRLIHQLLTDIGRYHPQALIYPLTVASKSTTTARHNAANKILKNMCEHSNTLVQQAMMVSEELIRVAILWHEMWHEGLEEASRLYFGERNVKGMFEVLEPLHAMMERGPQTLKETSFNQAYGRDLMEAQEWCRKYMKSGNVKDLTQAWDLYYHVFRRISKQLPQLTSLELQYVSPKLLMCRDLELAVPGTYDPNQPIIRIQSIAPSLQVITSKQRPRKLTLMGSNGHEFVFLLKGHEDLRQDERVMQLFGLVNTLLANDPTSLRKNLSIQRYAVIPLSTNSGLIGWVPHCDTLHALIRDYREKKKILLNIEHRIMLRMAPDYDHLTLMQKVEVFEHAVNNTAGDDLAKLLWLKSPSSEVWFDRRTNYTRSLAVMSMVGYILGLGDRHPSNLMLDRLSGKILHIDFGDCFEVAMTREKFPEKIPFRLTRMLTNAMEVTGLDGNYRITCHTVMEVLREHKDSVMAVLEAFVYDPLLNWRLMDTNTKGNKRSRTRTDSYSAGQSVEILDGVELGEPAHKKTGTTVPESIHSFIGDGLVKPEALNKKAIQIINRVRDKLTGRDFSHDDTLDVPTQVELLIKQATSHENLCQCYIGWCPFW
Chain of mTOR enzyme (mTOR(1360-2549)+GBL) (Q9BVC4 whole entry partner): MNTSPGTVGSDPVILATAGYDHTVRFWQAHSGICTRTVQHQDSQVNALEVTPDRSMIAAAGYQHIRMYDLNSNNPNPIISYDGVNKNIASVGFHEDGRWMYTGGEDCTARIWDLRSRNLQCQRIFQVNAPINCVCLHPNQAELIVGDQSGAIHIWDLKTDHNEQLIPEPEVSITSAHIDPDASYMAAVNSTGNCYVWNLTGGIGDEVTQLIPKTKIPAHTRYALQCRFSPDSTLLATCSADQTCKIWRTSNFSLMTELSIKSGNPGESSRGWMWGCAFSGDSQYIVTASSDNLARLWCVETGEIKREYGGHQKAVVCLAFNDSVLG

With `CCNC(=O)Nc1ccc(-c2nc(N3CCOC[C@@H]3C)c3nc(C4CC4)n(CC)c3n2)cc1` [Compound 106, (S)-1-(4-(8-cyclopropyl-9-ethyl-6-(3-methylmorpholino)-9H-purin-2-yl)phenyl)-3-ethylurea], in assay [1], the 50% inhibitory concentration (IC50) was determined as 441 nM. Further, in assay [2], the EC50 is 15 nM. Also, the Ki in assay [3] is 8 nM.
`CCNC(=O)Nc1ccc(-c2nc(N3CCOC[C@@H]3C)c3nc(C4(O)CCOCC4)n(C)c3n2)cc1` [Compound 103, (S)-1-ethyl-3-(4-(8-(4-hydroxytetrahydro-2H-pyran-4-yl)-9-methyl-6-(3-methylmorpholino)-9H-purin-2-yl)phenyl)urea]: it took 120 nM to reach half-maximal inhibition in assay [1] (IC50). The concentration giving a half-maximal response (EC50) in assay [2] is 29 nM. Besides, the Ki in assay [3] is 5 nM.
Consider `CCNC(=O)Nc1ccc(-c2nc(N3CCOC[C@@H]3C)c3nc(C4(F)CCOCC4)n(CC)c3n2)cc1` [Compound 110, (S)-1-ethyl-3-(4-(9-ethyl-8-(4-fluorotetrahydro-2H-pyran-4-yl)-6-(3-methylmorpholino)-9H-purin-2-yl)phenyl)urea], for which the half-maximal inhibitory concentration (IC50) in assay [1] was 163 nM. In addition, in assay [2], the EC50 is 5 nM. In assay [3], the Ki was 5 nM.
For `CCn1c(C2CC2)nc2c(N3CCOC[C@@H]3C)nc(-c3ccc(NC(=O)NC4COC4)cc3)nc21` [Compound 113, (S)-1-(4-(8-cyclopropyl-9-ethyl-6-(3-methylmorpholino)-9H-purin-2-yl)phenyl)-3-(oxetan-3-yl)urea], 1700 nM corresponded to half-maximal inhibition in assay [1] (IC50). The EC50 in assay [2] is 8 nM. Moreover, in assay [3], the Ki is 8 nM.
Compound `CCNC(=O)Nc1ccc(-c2nc(N3CCOC[C@@H]3C)c3nc(C4(O)CCOCC4)n(CC)c3n2)cc1` [Compound 104, (S)-1-ethyl-3-(4-(9-ethyl-8-(4-hydroxytetrahydro-2H-pyran-4-yl)-6-(3-methylmorpholino)-9H-purin-2-yl)phenyl)urea] registered a half-maximal inhibitory concentration (IC50) in assay [1] of 115 nM. Further, in assay [2], the EC50 is 10 nM. In assay [3], the Ki stood at 4 nM.
The like results for `CCNC(=O)Nc1ccc(-c2nc(N3CCOC[C@@H]3C)c3nc(C4(F)COC4)n(CC)c3n2)cc1` [Compound 109, (S)-1-ethyl-3-(4-(8-(3-fluorooxetan-3-yl)-9-ethyl-6-(3-methylmorpholino)-9H-purin-2-yl)phenyl)urea] were, in that order, 218 nM, 8 nM and 3 nM.
On to `CCn1c(C2CC2)nc2c(N3CCOC[C@@H]3C)nc(-c3ccc(Nc4cccc(=O)[nH]4)cc3)nc21` [Compound 112, (S)-6-(4-(8-cyclopropyl-9-ethyl-6-(3-methylmorpholino)-9H-purin-2-yl)phenylamino)pyridin-2(1H)-one], for which, in assay [1], the half-maximal inhibitory concentration (IC50) is 853 nM. Also, the concentration giving a half-maximal response (EC50) in assay [2] is 6 nM. Moreover, the Ki in assay [3] was 6 nM.
With `CCNC(=O)Nc1ccc(-c2nc(N3CCOC[C@@H]3C)c3nc(C4CC4)n(C)c3n2)cc1` [Compound 102, (S)-1-(4-(8-cyclopropyl-9-methyl-6-(3-methylmorpholino)-9H-purin-2-yl)phenyl)-3-ethylurea], in assay [1], the IC50 was 207 nM. The EC50 in assay [2] came out at 37 nM. Also, in assay [3], the Ki is 8 nM.
The like results for `CCNC(=O)Nc1ccc(-c2nc(N3CCOC[C@@H]3C)c3nc(C4(F)COC4)n(C)c3n2)cc1` [Compound 108, (S)-1-ethyl-3-(4-(8-(3-fluorooxetan-3-yl)-9-methyl-6-(3-methylmorpholino)-9H-purin-2-yl)phenyl)urea] were, in that order, 232 nM, 9 nM and 3 nM.
Consider `CCNC(=O)Nc1ccc(-c2nc(N3CCOC[C@@H]3C)c3nc(C4(O)COC4)n(CC)c3n2)cc1` [Compound 111, (S)-1-ethyl-3-(4-(9-ethyl-8-(3-hydroxyoxetan-3-yl)-6-(3-methylmorpholino)-9H-purin-2-yl)phenyl)urea], for which the 50% inhibitory concentration (IC50) in assay [1] was 269 nM. Also, in assay [2], the concentration giving a half-maximal response (EC50) worked out at 4 nM. Further, the Ki in assay [3] stood at 4 nM.
As to `CCNC(=O)Nc1ccc(-c2nc(N3CCOC[C@@H]3C)c3nc(C4(O)CNC4)n(C)c3n2)cc1` [Compound 105, (S)-1-ethyl-3-(4-(8-(3-hydroxyazetidin-3-yl)-9-methyl-6-(3-methylmorpholino)-9H-purin-2-yl)phenyl)urea], in assay [3], the Ki was found to be 74 nM.
As for `CCNC(=O)Nc1ccc(-c2nc(N3CCOC[C@@H]3C)c3nc(-c4cncnc4)n(CC)c3n2)cc1` [Compound 107, (S)-1-ethyl-3-(4-(9-ethyl-6-(3-methylmorpholino)-8-(pyrimidin-5-yl)-9H-purin-2-yl)phenyl)urea], the half-inhibitory concentration (IC50) in assay [1] was 112 nM. Also, the EC50 in assay [2] came out at 7 nM. Besides, in assay [3], the Ki worked out at 3 nM.
Consider `CCNC(=O)Nc1ccc(-c2nc(N3CCOC[C@@H]3C)c3nc(C4(O)COC4)n(C)c3n2)cc1` [Compound 101, (S)-1-ethyl-3-(4-(8-(3-hydroxyoxetan-3-yl)-9-methyl-6-(3-methylmorpholino)-9H-purin-2-yl)phenyl)urea], for which, in assay [1], the IC50 was 282 nM. In assay [2], the EC50 was found to be 30 nM. In assay [3], the Ki was determined as 7 nM.
